According to publication PMC8597734 (Antimicrobial Agents and Chemotherapy, 2021):
Converted amounts (≈) assume the structure as drawn. Where two headings read alike, the source gives them in different places.

Experiments:
[1] = test system: M. abscessus subsp. massiliense CCUG 48898T; test: microbe, parasite or virus in culture; format: cell-based, Mycobacterium abscessus; details: Mycobacteroides abscessus, 72 h
[2] = test system: M. abscessus subsp. bolletii CCUG 50184T; test: microbe, parasite or virus in culture; format: cell-based, Mycobacterium abscessus; details: Mycobacteroides abscessus, 72 h
ChromlogD assay = format: physicochemical; details: reversed phase HPLC column (Gemini NX C18)
Method: The Chromatographic Hydrophobicity Index (CHI) values are measured using reversed phase HPLC column (50 × 2 mm […] Gemini NX C18, Phenomenex, UK) with fast acetonitrile gradient at starting mobile phase of pHs 2, 7.4 and 10.5. CHI values are derived directly from the gradient retention times by using a calibration line obtained for standard compounds. The CHI value approximates to the volume % organic concentration when the compound elutes. CHI is linearly transformed into ChromlogD by least-square fitting of experimental CHI values to calculated ClogP values for over 20K research compounds using the following formula: ChromlogD = 0.0857CHI-2.00. The average error of the assay is ±3 CHI unit or ±0.25 ChromlogD.

Tolerability in mice = format: in vivo, mouse; details: tolerated at doses up to
[3] = Mouse oral pharmacokinetics; format: in vivo; details: for concentration at 24 h / AUC(0-t) / half-life: female; for concentration at 24 h: CD-1, mouse, below limit of quantitation (LOQ), read-out: plasma concentration at the 24h time point; for AUC(0-t) / half-life: mouse
Method: All animal studies were ethically reviewed and carried out in accordance with the Institutional Animal Care and Use Committee of Hackensack Meridian Health. Six-week-old CD-1 female mice (20–25 g) were used in pharmacokinetic studies. Groups of 3 mice received a single oral dose of EC/11716 formulated in 0.4% methylcellulose, at either 50, 200 or 400 mg/kg. Aliquots of 20 μl of blood were collected from the lateral tail vein by serial puncture from each mouse at 0.5, 1, 3, 5, 7 and 24h post dose in K2EDTA tubes. Plasma was recovered after centrifugation and stored at −80°C until analyzed by high pressure liquid chromatography coupled to tandem mass spectrometry.
Neat 1 mg/ml DMSO stocks of EC/11716 were serial diluted in 50/50 Acetonitrile water to create standard curves and quality control spiking solutions. Standards and QCs were created by adding 10μls of spiking solutions to 90μls of drug free plasma (CD-1 K2EDTA Mouse, Bioreclamation IVT). 10μls of control, standard, QC, or study sample were added to 100 μl of Acetonitrile/Methanol 50/50 protein precipitation solvent containing 10 ng/ml of the internal standard Verapamil (Sigma-Aldrich). Extracts were vortexed for 5 min and centrifuged at 4000 RPM for 5 min. 75 μl of supernatant was transferred for HPLC-MS/MS analysis and diluted with 75 μl of Milli-Q deionized water.
LC-MS/MS analysis was performed on a Sciex Applied Biosystems Qtrap 6500+ triple-quadrupole mass spectrometer coupled to a Shimadzu Nexera X2 UHPLC system to quantify each drug in plasma. Chromatography was performed on a Phenomenex Luna Omega column (2.1 × 100 mm; particle size, 3 μm) using a reverse phase gradient. Milli-Q deionized water with 0.1% formic acid was used for the aqueous mobile phase and 0.1% formic acid in acetonitrile for the organic mobile phase. Multiple-reaction monitoring of parent/daughter transitions in electrospray positive-ionization mode was used to quantify the analytes. The following MRM transitions were used for EC/11716 (458.09/203.10) and Verapamil (455.40/165.00). Sample analysis was accepted if the concentrations of the quality control samples were within 20% of the nominal concentration. Data processing was performed using Analyst software (version 1.6.2; Applied Biosystems Sciex).

[4] = test system: M. abscessus subsp. bolletii M506; test: microbe, parasite or virus in culture; format: cell-based, Mycobacterium abscessus; details: Mycobacteroides abscessus, 72 h
[5] = test system: M. intracellulare ATCC 13950; test: microbe, parasite or virus in culture; format: cell-based; details: Mycobacterium intracellulare, ATCC13950, 96 h
[6] = test system: M. abscessus subsp. abscessus M337; test: microbe, parasite or virus in culture; format: cell-based, Mycobacterium abscessus; details: Mycobacteroides abscessus, 72 h
[7] = AMP (artificial membrane permeability) assay; format: in vitro ADME; details: PAMPA, pH 7.4
Method: An 8% L-a-phosphatidylcholine (EPC) in 1% cholesterol decane solution and a 1.8% EPC in cholesterol decane solution were prepared. The lipid solution was aliquoted into 4 ml capped vials, sealed with parafilm and stored in −20°C freezer. The lipid solution was then transferred from 4 ml vial into a 96-well half area plate (130 μl/well) for daily assay usage. An additional 50 mM phosphate buffer with 0.5% encapsin, pH at 7.4 was prepared. The assay was run by the Biomek FX and Biomek software. The assay procedure is written under the Biomek software. For one batch assay, it can test two 96-well sample plates with at least one standard on each sample plate. The total assay time was about 4 h. 3.5 μl of lipid solution were added to the filler plate, shaken for 12 s, and 250 μl of buffer were added to donor side and 100 μl to the receiver side. The assay plate was shaken for 45 min before adding the compounds. The test compounds (2.5 μl) were added to the donor side. The assay was run as replicates: Assay plates 1 and 2 tested the sample plate 1; assay plates 3 and 4 tested the sample plate 2. The assay plates were then incubated and shaken for 3 h at room temperature. The assay samples were transferred to the HPLC analysis plates and 100 μl of receiver solution were aspirated and transferred to the receiver for analysis. […] Compound concentration was measured by HPLC at different time points.

[8] = test system: M. abscessus subsp. abscessus K21; test: microbe, parasite or virus in culture; format: cell-based, Mycobacterium abscessus; details: Mycobacteroides abscessus, 72 h
human serum albumin = molecular target: T1, human serum albumin (Homo sapiens, UniProt P02768); test: Drug binding to human serum albumin (HSA HPLC column); format: in vitro ADME; details: immobilized human serum albumin HPLC column, pH 7.4, read-out: Protein binding (converted)
T1 construct: purchased Chiral Technologies Ltd., France

[9] = mice, oral 400 mg/kg, from PK profiles and potency data

T1 sequence (P02768 25-609): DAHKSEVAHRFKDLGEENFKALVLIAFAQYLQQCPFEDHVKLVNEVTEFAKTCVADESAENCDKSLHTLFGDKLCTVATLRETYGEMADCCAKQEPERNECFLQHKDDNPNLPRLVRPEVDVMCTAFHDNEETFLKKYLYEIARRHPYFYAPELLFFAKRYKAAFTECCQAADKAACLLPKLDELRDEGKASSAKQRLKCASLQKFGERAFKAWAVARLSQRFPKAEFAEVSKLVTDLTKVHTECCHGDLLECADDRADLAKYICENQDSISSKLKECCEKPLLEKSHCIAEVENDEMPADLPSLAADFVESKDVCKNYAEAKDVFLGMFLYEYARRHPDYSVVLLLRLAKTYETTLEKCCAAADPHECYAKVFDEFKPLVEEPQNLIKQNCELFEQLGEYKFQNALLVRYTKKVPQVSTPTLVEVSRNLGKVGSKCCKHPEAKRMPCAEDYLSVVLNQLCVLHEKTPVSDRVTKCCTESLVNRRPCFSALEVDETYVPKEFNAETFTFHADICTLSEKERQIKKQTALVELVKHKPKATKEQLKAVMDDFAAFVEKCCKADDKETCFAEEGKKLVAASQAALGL

COc1cnc2ccc(=O)n(CCN3CCC(NCc4cnc(CO)c(Cl)c4)CC3)c2c1 [EC/11716]
MIC [1]: 4.7 µM (≈ 2.15 µg/mL)
MIC [2]: 4.1 µM (≈ 1.88 µg/mL)
chromatographic logD (ChromlogD assay; pH 7.4, read-out: ChromLogD pH 7.4): 1.73
chromatographic logD (ChromlogD assay; read-out: LogD): 1.74
tolerated dose (Tolerability in mice): up to 550 mg/kg
DNAUC[0-24]_50 mg/kg ([3]; CD-1 mice, oral 50 mg/kg, dose-normalized AUC, mean (SD)): 58 (16) ng*h/ml per mg/kg
Tmax_50 mg/kg ([3]; CD-1 mice, oral 50 mg/kg, range of values): 0.5 to 1.0 h
DNAUC[0-24]_200 mg/kg ([3]; CD-1 mice, oral 200 mg/kg, dose-normalized AUC, mean (SD)): 167 (24) ng*h/ml per mg/kg
Tmax_200 mg/kg ([3]; CD-1 mice, oral 200 mg/kg, range of values): 0.5−1.0 h
DNAUC[0-24]_400 mg/kg ([3]; CD-1 mice, oral 400 mg/kg, dose-normalized AUC, mean (SD)): 202 (8) ng*h/ml per mg/kg
Tmax_400 mg/kg ([3]; CD-1 mice, oral 400 mg/kg, range of values): 0.5 to 1.0 h
Cmax_50 mg/kg ([3]; CD-1 mice, single oral dose 50 mg/kg, plasma, mean (SD)): 632 (430) ng/ml
Cmax_200 mg/kg ([3]; CD-1 mice, single oral dose 200 mg/kg, plasma, mean (SD)): 7,177 (618) ng/ml
Cmax_400 mg/kg ([3]; CD-1 mice, single oral dose 400 mg/kg, plasma, mean (SD)): 16,767 (8,281) ng/ml
concentration at 24 h ([3]; plasma, mice, oral 50 mg/kg): < 20 ng/mL
concentration at 24 h ([3]; plasma, mice, oral 200 mg/kg): < 20 ng/mL
AUC(0-t) ([3]; plasma, CD-1 mice, oral 50 mg/kg, mean (SD), read-out: AUC[0-24]_50 mg/kg): 2900 ng·h/mL
half-life ([3]; plasma, CD-1 mice, oral 50 mg/kg, mean (SD), read-out: Elimination T1/2 _50 mg/kg (converted)): 2.7 h
AUC(0-t) ([3]; plasma, CD-1 mice, oral 200 mg/kg, mean (SD), read-out: AUC[0-24]_200 mg/kg): 33400 ng·h/mL
half-life ([3]; plasma, CD-1 mice, oral 200 mg/kg, mean (SD), read-out: Elimination T1/2 _200 mg/kg (converted)): 1.7 h
AUC(0-t) ([3]; plasma, CD-1 mice, oral 400 mg/kg, mean (SD), read-out: AUC[0-24]_400 mg/kg): 80700 ng·h/mL
half-life ([3]; plasma, CD-1 mice, oral 400 mg/kg, mean (SD), read-out: Elimination T1/2 _400 mg/kg (converted)): 3.6 h
time above MIC of M. abscessus K21 planktonic cultures [3, 9]: 67%
time above MIC of M. abscessus biofilms [3, 9]: greater than 70%
MIC [4]: 5.2 µM (≈ 2.38 µg/mL)
MIC [5]: 3.3 µM (≈ 1.51 µg/mL)
MIC [6]: 2.4 µM (≈ 1.1 µg/mL)
Papp at 3 h [7]: 16 ×10⁻⁶ cm/s
MIC [8]: 3 µM (≈ 1.37 µg/mL)
fraction unbound (human serum albumin): 0.505
